Here are results for three compounds from paper PMC7918738, “Microtubule Destabilizing Sulfonamides as an Alternative to Taxane-Based Chemotherapy” (International Journal of Molecular Sciences, 2021).

Each structure is given as a SMILES string.

The test system of assay [1] is SKOV3 ovarian carcinoma cells. On the set-up: method as in PMID 29291446. Particulars: read-out: Antiproliferative IC50 SKOV3; cited from earlier work.
For assay [2], the system named is microtubule network of MCF7, SKOV3, and HeLa cells. Description: Immunofluorescence confocal microscopy of the microtubule network. It is filed as cell-based, human. The following applies: 72 h, 38 600 nM, 45 400 nM. The procedure: The effect of MDS 38 and 45 on the tubulin cytoskeleton was analyzed in MCF7, SKOV3, and HeLa cells after 72-h treatments. The microtubule network was visualized by confocal microscopy staining α-tubulin in green, and cell nuclei were stained in blue with DAPI (4’,6-diamidino-2-phenylindole) (Figure 4).
MCF7, SKOV-3, and HeLa cells were grown on glass coverslips coated with poly-L-lysine (12 mm diameter). To reach appropriate cell confluence, coverslips were manipulated in 6-well plates (3 coverslips/well) seeding 3 mL/well of cells in the exponential growth phase at 2 × 10^4 cells/mL. After 24 h incubation, cells were treated with selected compounds and incubated for 72 h. Cells were washed with PBS, fixed with 4% formaldehyde in PBS for 10 min, permeabilized with 0.5% Triton X-100 (Boehringer Mannheim, Ingelheim am Rhein, Germany) in PBS for 10 min and blocked with 10% BSA in PBS for 30 min. Microtubule detection was performed by incubation with anti-α-tubulin mouse monoclonal antibody (1:200 in 3% BSA/PBS) (Sigma-Aldrich) for 1.5 h. After PBS washing, coverslips were incubated with fluorescent secondary antibody Alexa Fluor 488 goat anti-mouse IgG (1:400 in 1% BSA/PBS) (Molecular Probes, Invitrogen, Thermo Fischer Scientific) for 1 h in darkness. […] Cells were analyzed by confocal microscopy using a LEICA SP5 microscope DMI-6000V model coupled to a LEICA LAS AF software computer.

One may read the IC50 as the point on the concentration scale where inhibition reaches its midpoint. As for `COc1ccc(/C=C\c2cc(OC)c(OC)c(OC)c2)cc1O` [Combretastatin A-4, reference compound], the IC50 in assay [1] is 380 nM.
With `CNc1ccc(S(=O)(=O)N(C)c2cc(OC)c(OC)c(OC)c2)cc1` [Compound 38], the “Effect on the microtubule network (α-tubulin immunofluorescence)” value in assay [2] is on record as “disrupted the microtubule system”.
On the same count and under the same terms, the entry for `COc1ccc(S(=O)(=O)N(Cc2ccccc2)c2cc(OC)c(OC)c(OC)c2)cc1N` [Compound 45] is “disrupted the microtubule system”.
